The compounds below were run against T1, α1A adrenergic receptor (Homo sapiens, UniProt P35348) (assay: Radioligand binding, α1A adrenergic receptor ([3H]prazosin)). Settings: not given.
T1 construct: expressed in transfected cells; host or cells: Chinese hamster ovary cell line (membrane preparation)
T1 sequence (P35348 1-466): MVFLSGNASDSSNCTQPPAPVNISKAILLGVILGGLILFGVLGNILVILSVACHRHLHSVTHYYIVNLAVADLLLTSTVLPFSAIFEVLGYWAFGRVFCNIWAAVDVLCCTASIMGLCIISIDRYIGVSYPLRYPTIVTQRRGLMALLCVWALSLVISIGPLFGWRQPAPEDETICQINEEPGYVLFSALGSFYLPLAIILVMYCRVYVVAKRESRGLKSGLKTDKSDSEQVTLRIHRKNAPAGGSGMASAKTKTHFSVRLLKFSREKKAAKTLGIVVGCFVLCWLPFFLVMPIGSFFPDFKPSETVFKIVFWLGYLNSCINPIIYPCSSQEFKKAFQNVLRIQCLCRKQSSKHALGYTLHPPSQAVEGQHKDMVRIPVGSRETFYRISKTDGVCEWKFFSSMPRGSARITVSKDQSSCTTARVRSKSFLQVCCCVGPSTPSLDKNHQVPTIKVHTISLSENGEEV

SMILES	Ki [µM]
C=C(C)COc1cc(OC)c(CC(C)N)cc1OC (stereo not shown) [MMALM, 2,5-dimethoxy-4-methallyloxyamphetamine]	> 6.5
COc1cc(OCC(F)F)c(OC)cc1CC(C)N (stereo not shown) [MDFEM, 4-(2,2-difluoroethoxy)-2,5-dimethoxyamphetamine]	> 6.5
COc1cc(OCC(F)(F)F)c(OC)cc1CCN [2C-O-22, 2,5-dimethoxy-4-(2,2,2-trifluoroethoxy)phenethylamine]	> 6.5
COc1cc(OC(C)C)c(OC)cc1CC(C)N (stereo not shown) [MIPM, 2,5-dimethoxy-4-isopropoxyamphetamine]	> 6.5
COc1cc(OCc2ccccc2)c(OC)cc1CCN [2C-O-27, 4-benzyloxy-2,5-dimethoxyphenethylamine]	> 6.5
COc1cc(OCC(F)(F)F)c(OC)cc1CC(C)N (stereo not shown) [MTFEM, 2,5-dimethoxy-4-(2,2,2-trifluoroethoxy)amphetamine]	> 6.5

The compounds below were run against hNET (Homo sapiens, UniProt P23975) (assay: Radioligand binding, NET (N-methyl-[3H]nisoxetine)). Settings: not given.
Set-up: expressed in transfected cells; host or cells: HEK 293 (membrane preparation)

Chain of hNET (P23975 whole entry): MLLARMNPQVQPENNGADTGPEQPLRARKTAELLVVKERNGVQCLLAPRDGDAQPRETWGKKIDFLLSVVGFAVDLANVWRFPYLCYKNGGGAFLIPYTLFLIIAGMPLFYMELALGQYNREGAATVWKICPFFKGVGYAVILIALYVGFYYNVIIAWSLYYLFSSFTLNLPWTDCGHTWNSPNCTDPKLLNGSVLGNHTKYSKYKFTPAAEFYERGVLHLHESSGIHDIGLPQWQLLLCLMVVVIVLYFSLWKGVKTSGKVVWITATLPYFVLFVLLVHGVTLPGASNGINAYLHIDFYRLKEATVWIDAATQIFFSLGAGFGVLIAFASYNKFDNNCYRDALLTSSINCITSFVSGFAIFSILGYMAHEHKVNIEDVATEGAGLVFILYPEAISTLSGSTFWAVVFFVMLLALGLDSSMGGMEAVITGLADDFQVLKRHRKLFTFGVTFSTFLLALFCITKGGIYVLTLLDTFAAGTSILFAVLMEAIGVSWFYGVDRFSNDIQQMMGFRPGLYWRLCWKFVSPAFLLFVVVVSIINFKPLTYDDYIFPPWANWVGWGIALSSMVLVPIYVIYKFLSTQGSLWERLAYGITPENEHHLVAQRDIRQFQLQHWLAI

SMILES	Ki [µM]
C=C(C)COc1cc(OC)c(CC(C)N)cc1OC (stereo not shown) [MMALM, 2,5-dimethoxy-4-methallyloxyamphetamine]	> 9.7
COc1cc(OCC(F)F)c(OC)cc1CC(C)N (stereo not shown) [MDFEM, 4-(2,2-difluoroethoxy)-2,5-dimethoxyamphetamine]	> 9.7
COc1cc(OCC(F)(F)F)c(OC)cc1CCN [2C-O-22, 2,5-dimethoxy-4-(2,2,2-trifluoroethoxy)phenethylamine]	> 9.7
COc1cc(OC(C)C)c(OC)cc1CC(C)N (stereo not shown) [MIPM, 2,5-dimethoxy-4-isopropoxyamphetamine]	> 9.7
COc1cc(OCc2ccccc2)c(OC)cc1CCN [2C-O-27, 4-benzyloxy-2,5-dimethoxyphenethylamine]	> 9.7
COc1cc(OCC(F)(F)F)c(OC)cc1CC(C)N (stereo not shown) [MTFEM, 2,5-dimethoxy-4-(2,2,2-trifluoroethoxy)amphetamine]	> 9.7

These compounds were tested against T2, mouse TAAR1 (Mus musculus, UniProt Q923Y8) (assay: Radioligand binding, mouse TAAR1 ([3H]RO5166017)). Settings: not given.
T2 construct: expressed in transfected cells; host or cells: HEK 293 (membrane preparation)
T2 sequence (Q923Y8 whole entry): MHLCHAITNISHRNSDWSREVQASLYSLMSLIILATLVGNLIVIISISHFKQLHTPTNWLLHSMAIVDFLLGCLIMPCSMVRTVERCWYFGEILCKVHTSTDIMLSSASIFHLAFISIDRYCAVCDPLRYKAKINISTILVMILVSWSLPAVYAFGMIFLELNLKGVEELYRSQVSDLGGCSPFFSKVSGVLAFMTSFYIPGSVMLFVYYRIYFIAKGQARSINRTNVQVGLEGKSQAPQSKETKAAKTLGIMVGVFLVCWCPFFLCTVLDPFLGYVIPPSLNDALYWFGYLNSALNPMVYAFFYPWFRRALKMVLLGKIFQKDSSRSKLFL

SMILES	Ki [µM]
C=C(C)COc1cc(OC)c(CC(C)N)cc1OC (stereo not shown) [MMALM, 2,5-dimethoxy-4-methallyloxyamphetamine]	1.7 ± 0.9
COc1cc(OCC(F)F)c(OC)cc1CC(C)N (stereo not shown) [MDFEM, 4-(2,2-difluoroethoxy)-2,5-dimethoxyamphetamine]	> 4.8
COc1cc(OCC(F)(F)F)c(OC)cc1CCN [2C-O-22, 2,5-dimethoxy-4-(2,2,2-trifluoroethoxy)phenethylamine]	2.5 ± 0.4
COc1cc(OC(C)C)c(OC)cc1CC(C)N (stereo not shown) [MIPM, 2,5-dimethoxy-4-isopropoxyamphetamine]	> 4.8
COc1cc(OCc2ccccc2)c(OC)cc1CCN [2C-O-27, 4-benzyloxy-2,5-dimethoxyphenethylamine]	0.65 ± 0.19
COc1cc(OCC(F)(F)F)c(OC)cc1CC(C)N (stereo not shown) [MTFEM, 2,5-dimethoxy-4-(2,2,2-trifluoroethoxy)amphetamine]	4.5 ± 0.5

Each compound was assayed against T3, α2A adrenergic receptor (Homo sapiens, UniProt P08913) (assay: Radioligand binding, α2A adrenergic receptor ([3H]rauwolscine)). Settings: not given.
T3 construct: expressed in transfected cells; host or cells: Chinese hamster lung cell line (membrane preparation)
T3 sequence (P08913 1-465): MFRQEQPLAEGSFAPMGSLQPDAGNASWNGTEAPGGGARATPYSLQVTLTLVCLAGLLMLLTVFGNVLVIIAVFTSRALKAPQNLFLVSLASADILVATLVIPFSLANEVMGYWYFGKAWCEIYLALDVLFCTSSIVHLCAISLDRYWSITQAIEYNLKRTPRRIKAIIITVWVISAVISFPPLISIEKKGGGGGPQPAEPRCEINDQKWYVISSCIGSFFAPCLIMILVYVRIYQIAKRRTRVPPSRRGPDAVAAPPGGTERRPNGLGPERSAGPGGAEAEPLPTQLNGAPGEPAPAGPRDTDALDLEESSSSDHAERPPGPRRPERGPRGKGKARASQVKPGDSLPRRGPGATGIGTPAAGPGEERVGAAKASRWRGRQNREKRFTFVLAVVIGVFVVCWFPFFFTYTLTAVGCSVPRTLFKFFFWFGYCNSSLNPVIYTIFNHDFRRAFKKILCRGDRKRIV

SMILES	Ki [µM]
C=C(C)COc1cc(OC)c(CC(C)N)cc1OC (stereo not shown) [MMALM, 2,5-dimethoxy-4-methallyloxyamphetamine]	2.4 ± 0.2
COc1cc(OCC(F)F)c(OC)cc1CC(C)N (stereo not shown) [MDFEM, 4-(2,2-difluoroethoxy)-2,5-dimethoxyamphetamine]	> 4.8
COc1cc(OCC(F)(F)F)c(OC)cc1CCN [2C-O-22, 2,5-dimethoxy-4-(2,2,2-trifluoroethoxy)phenethylamine]	1.8 ± 0.1
COc1cc(OC(C)C)c(OC)cc1CC(C)N (stereo not shown) [MIPM, 2,5-dimethoxy-4-isopropoxyamphetamine]	> 4.8
COc1cc(OCc2ccccc2)c(OC)cc1CCN [2C-O-27, 4-benzyloxy-2,5-dimethoxyphenethylamine]	0.57 ± 0.03
COc1cc(OCC(F)(F)F)c(OC)cc1CC(C)N (stereo not shown) [MTFEM, 2,5-dimethoxy-4-(2,2,2-trifluoroethoxy)amphetamine]	> 4.8

Each compound was assayed against hDAT (Homo sapiens, UniProt Q01959) (assay: Radioligand binding, DAT ([3H]WIN35,428)). Settings: not given.
Set-up: expressed in transfected cells; host or cells: HEK 293 (membrane preparation)

Chain of hDAT (Q01959 whole entry): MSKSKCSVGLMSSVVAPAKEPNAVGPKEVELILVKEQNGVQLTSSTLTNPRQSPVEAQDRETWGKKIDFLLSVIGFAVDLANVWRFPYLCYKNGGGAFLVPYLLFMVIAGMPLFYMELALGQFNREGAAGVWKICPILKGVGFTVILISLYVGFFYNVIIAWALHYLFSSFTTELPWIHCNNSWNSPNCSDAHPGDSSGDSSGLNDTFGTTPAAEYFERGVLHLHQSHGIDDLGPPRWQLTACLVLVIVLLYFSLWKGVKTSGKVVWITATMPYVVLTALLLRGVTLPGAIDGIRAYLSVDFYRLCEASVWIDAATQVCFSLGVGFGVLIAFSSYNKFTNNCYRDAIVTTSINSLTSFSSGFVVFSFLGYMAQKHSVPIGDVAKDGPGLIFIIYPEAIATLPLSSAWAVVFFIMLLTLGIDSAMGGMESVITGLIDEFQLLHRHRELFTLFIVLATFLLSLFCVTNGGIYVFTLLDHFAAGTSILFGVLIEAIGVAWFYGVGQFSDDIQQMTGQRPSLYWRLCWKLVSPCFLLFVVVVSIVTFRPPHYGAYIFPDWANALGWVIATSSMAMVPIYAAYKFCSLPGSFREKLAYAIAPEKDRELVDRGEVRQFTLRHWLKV

SMILES	Ki [µM]
C=C(C)COc1cc(OC)c(CC(C)N)cc1OC (stereo not shown) [MMALM, 2,5-dimethoxy-4-methallyloxyamphetamine]	> 8.7
COc1cc(OCC(F)F)c(OC)cc1CC(C)N (stereo not shown) [MDFEM, 4-(2,2-difluoroethoxy)-2,5-dimethoxyamphetamine]	> 8.7
COc1cc(OCC(F)(F)F)c(OC)cc1CCN [2C-O-22, 2,5-dimethoxy-4-(2,2,2-trifluoroethoxy)phenethylamine]	> 8.7
COc1cc(OC(C)C)c(OC)cc1CC(C)N (stereo not shown) [MIPM, 2,5-dimethoxy-4-isopropoxyamphetamine]	> 8.7
COc1cc(OCc2ccccc2)c(OC)cc1CCN [2C-O-27, 4-benzyloxy-2,5-dimethoxyphenethylamine]	6.1 ± 0.4
COc1cc(OCC(F)(F)F)c(OC)cc1CC(C)N (stereo not shown) [MTFEM, 2,5-dimethoxy-4-(2,2,2-trifluoroethoxy)amphetamine]	> 8.7

What follows are compounds tested against T4, 5-HT2C receptor (Homo sapiens, UniProt P28335) (assay: biochemical). Settings: not given.
T4 construct: expressed in transfected cells; host or cells: HEK 293 (membrane preparation)
T4 sequence (P28335 33-458): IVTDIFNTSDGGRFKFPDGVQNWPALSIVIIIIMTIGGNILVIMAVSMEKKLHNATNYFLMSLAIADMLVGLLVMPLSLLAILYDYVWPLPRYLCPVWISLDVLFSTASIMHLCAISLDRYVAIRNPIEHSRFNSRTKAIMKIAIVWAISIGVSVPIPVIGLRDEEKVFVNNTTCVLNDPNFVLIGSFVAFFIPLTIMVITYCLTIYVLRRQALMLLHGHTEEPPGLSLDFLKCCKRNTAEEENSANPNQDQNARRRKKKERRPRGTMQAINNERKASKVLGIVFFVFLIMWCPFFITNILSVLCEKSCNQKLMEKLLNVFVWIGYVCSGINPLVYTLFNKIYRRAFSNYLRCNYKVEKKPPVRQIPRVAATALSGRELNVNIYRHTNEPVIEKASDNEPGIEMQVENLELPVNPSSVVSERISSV
Assay type: binding

SMILES	Enhancement of 5-HT2C binding affinity compared to TMA-2 (19) [fold]	Increase in 5-HT2C binding affinity compared to MFEM (15) [fold]	Reduction of 5-HT2C binding affinity compared to TMA-2 (19) [fold]
C=C(C)COc1cc(OC)c(CC(C)N)cc1OC (stereo not shown) [MMALM, 2,5-dimethoxy-4-methallyloxyamphetamine]	18	–	–
COc1cc(OCC(F)F)c(OC)cc1CC(C)N (stereo not shown) [MDFEM, 4-(2,2-difluoroethoxy)-2,5-dimethoxyamphetamine]	–	2	–
COc1cc(OC(C)C)c(OC)cc1CC(C)N (stereo not shown) [MIPM, 2,5-dimethoxy-4-isopropoxyamphetamine]	–	–	2
COc1cc(OCC(F)(F)F)c(OC)cc1CC(C)N (stereo not shown) [MTFEM, 2,5-dimethoxy-4-(2,2,2-trifluoroethoxy)amphetamine]	–	~5	–

Same assay, conditions: [3H]mesulgerine; read-out: h5-HT2C Receptor binding Ki ± SD

SMILES	Ki [µM]
C=C(C)COc1cc(OC)c(CC(C)N)cc1OC (stereo not shown) [MMALM, 2,5-dimethoxy-4-methallyloxyamphetamine]	0.29 ± 0.11
COc1cc(OCC(F)F)c(OC)cc1CC(C)N (stereo not shown) [MDFEM, 4-(2,2-difluoroethoxy)-2,5-dimethoxyamphetamine]	6.7 ± 2.4
COc1cc(OCC(F)(F)F)c(OC)cc1CCN [2C-O-22, 2,5-dimethoxy-4-(2,2,2-trifluoroethoxy)phenethylamine]	1.9 ± 0.4
COc1cc(OC(C)C)c(OC)cc1CC(C)N (stereo not shown) [MIPM, 2,5-dimethoxy-4-isopropoxyamphetamine]	9.03 ± 2.39
COc1cc(OCc2ccccc2)c(OC)cc1CCN [2C-O-27, 4-benzyloxy-2,5-dimethoxyphenethylamine]	0.11 ± 0.05
COc1cc(OCC(F)(F)F)c(OC)cc1CC(C)N (stereo not shown) [MTFEM, 2,5-dimethoxy-4-(2,2,2-trifluoroethoxy)amphetamine]	2.4 ± 0.8

The compounds below were run against T5, dopaminergic D2 receptor (Homo sapiens, UniProt P14416) (assay: Radioligand binding, dopaminergic D2 receptor ([3H]spiperone)). Settings: not given.
T5 construct: expressed in transfected cells; host or cells: HEK 293 (membrane preparation)
T5 sequence (P14416 whole entry): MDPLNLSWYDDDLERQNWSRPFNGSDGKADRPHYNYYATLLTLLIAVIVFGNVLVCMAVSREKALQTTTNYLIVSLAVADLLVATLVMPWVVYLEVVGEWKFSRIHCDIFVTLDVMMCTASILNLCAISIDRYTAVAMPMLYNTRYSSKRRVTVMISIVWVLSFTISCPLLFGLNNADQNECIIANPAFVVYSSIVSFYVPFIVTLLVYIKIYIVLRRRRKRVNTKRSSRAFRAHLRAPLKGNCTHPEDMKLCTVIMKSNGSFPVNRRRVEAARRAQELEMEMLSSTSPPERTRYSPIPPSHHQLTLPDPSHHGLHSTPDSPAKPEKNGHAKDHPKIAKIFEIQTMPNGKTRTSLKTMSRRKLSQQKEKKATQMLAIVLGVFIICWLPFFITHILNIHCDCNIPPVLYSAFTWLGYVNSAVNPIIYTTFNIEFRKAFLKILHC

SMILES	Ki [µM]
C=C(C)COc1cc(OC)c(CC(C)N)cc1OC (stereo not shown) [MMALM, 2,5-dimethoxy-4-methallyloxyamphetamine]	> 4.8
COc1cc(OCC(F)F)c(OC)cc1CC(C)N (stereo not shown) [MDFEM, 4-(2,2-difluoroethoxy)-2,5-dimethoxyamphetamine]	> 4.8
COc1cc(OCC(F)(F)F)c(OC)cc1CCN [2C-O-22, 2,5-dimethoxy-4-(2,2,2-trifluoroethoxy)phenethylamine]	> 4.8
COc1cc(OC(C)C)c(OC)cc1CC(C)N (stereo not shown) [MIPM, 2,5-dimethoxy-4-isopropoxyamphetamine]	> 4.8
COc1cc(OCc2ccccc2)c(OC)cc1CCN [2C-O-27, 4-benzyloxy-2,5-dimethoxyphenethylamine]	> 4.8
COc1cc(OCC(F)(F)F)c(OC)cc1CC(C)N (stereo not shown) [MTFEM, 2,5-dimethoxy-4-(2,2,2-trifluoroethoxy)amphetamine]	> 4.8

Each compound was assayed against hSERT (Homo sapiens, UniProt P31645) (assay: Radioligand binding, SERT ([3H]citalopram)). Settings: not given.
Set-up: expressed in transfected cells; host or cells: HEK 293 (membrane preparation)

Chain of hSERT (P31645 whole entry): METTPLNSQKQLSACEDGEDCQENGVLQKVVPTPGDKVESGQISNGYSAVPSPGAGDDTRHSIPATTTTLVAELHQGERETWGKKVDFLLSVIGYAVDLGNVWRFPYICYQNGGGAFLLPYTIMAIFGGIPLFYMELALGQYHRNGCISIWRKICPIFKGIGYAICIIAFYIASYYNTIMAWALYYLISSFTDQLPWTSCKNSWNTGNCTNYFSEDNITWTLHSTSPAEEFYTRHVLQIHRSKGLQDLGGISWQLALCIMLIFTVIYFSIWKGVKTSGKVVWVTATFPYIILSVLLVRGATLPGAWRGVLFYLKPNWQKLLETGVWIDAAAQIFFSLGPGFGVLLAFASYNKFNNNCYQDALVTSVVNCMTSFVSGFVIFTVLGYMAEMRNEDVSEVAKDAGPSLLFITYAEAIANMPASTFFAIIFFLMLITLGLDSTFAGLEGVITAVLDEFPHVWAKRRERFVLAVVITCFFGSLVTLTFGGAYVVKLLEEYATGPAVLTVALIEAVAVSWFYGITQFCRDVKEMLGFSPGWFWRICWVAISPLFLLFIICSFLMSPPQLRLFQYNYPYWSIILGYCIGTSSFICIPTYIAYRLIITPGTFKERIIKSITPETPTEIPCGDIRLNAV

SMILES	Ki [µM]
C=C(C)COc1cc(OC)c(CC(C)N)cc1OC (stereo not shown) [MMALM, 2,5-dimethoxy-4-methallyloxyamphetamine]	> 8.6
COc1cc(OCC(F)F)c(OC)cc1CC(C)N (stereo not shown) [MDFEM, 4-(2,2-difluoroethoxy)-2,5-dimethoxyamphetamine]	> 8.6
COc1cc(OCC(F)(F)F)c(OC)cc1CCN [2C-O-22, 2,5-dimethoxy-4-(2,2,2-trifluoroethoxy)phenethylamine]	> 8.6
COc1cc(OC(C)C)c(OC)cc1CC(C)N (stereo not shown) [MIPM, 2,5-dimethoxy-4-isopropoxyamphetamine]	> 8.6
COc1cc(OCc2ccccc2)c(OC)cc1CCN [2C-O-27, 4-benzyloxy-2,5-dimethoxyphenethylamine]	> 8.6
COc1cc(OCC(F)(F)F)c(OC)cc1CC(C)N (stereo not shown) [MTFEM, 2,5-dimethoxy-4-(2,2,2-trifluoroethoxy)amphetamine]	> 8.6

Reference: PMC6893898, “Receptor Interaction Profiles of 4-Alkoxy-Substituted 2,5-Dimethoxyphenethylamines and Related Amphetamines” (Frontiers in Pharmacology, 2019)
